Measured values as given in patent publication US12522595B2, “Bicyclic ether O-glycoprotein-2-acetamido-2-deoxy-3-D-glucopyranosidase inhibitors” (BIOGEN MA INC., priority 2019, dated 2026).
pIC50: −log10 of the molar value.

Each molecule was assayed against T1, Recombinant full length human OGA enzyme (Homo sapiens, UniProt O60502) (assay: OGA enzyme inhibition biochemical assay). Details: 1 nM OGA, 100 μM 4-MUGlcNAc (Km), pH 6.4, 90 minutes at room temperature, 10-point dose-response from 20 μM.
T1 construct: Recombinant full length human OGA enzyme was purchased from Origene; purchased Origene
T1 sequence (O60502 1-916): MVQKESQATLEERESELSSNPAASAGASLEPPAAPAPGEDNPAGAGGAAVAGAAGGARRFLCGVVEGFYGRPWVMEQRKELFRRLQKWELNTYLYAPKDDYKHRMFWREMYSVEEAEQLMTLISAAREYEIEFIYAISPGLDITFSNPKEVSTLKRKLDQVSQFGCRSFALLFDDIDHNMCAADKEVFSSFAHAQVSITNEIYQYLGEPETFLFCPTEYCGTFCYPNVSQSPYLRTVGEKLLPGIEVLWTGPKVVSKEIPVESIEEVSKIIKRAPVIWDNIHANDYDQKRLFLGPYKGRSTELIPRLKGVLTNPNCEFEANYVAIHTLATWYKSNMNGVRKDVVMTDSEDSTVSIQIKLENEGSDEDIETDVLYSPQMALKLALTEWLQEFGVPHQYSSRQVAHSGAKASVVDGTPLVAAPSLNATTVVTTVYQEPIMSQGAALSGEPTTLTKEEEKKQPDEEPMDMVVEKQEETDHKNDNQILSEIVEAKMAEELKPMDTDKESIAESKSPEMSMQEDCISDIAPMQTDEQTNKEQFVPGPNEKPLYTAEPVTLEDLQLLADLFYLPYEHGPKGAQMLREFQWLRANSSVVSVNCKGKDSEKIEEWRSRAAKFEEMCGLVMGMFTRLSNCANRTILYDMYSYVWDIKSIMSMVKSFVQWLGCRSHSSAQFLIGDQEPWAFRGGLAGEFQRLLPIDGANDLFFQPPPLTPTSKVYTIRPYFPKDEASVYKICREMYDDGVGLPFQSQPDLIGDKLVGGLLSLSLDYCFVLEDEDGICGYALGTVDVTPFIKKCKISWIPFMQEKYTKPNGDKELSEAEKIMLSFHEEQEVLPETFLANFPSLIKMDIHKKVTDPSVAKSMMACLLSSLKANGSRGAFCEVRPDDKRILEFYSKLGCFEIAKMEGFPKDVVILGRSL
How it was run: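 1 nM OGA with 100 μM 4-MUGlcNAc (Km) in McIlvaine buffer pH 6.4, 0.01% BSA, 90 min at room temperature; quenched with 3M glycine pH 10, fluorescence Ex 355/Em 460 nm. 10-point, 4-fold dilutions from 20 μM; 4-parameter variable-slope fit.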

SMILES	pIC50
CC(=O)Nc1nc(F)c(CN2C[C@H](Oc3ccnc4cnn(C)c34)C[C@@H]2C)s1 [Example 135, N-(4-fluoro-5-(((2S,4R)-2-methyl-4-((1-methyl-1H-pyrazolo[4,3-b]pyridin-7-yl)oxy)pyrrolidin-1-yl)methyl)thiazol-2-yl)acetamide]	> 9.00
CC(=O)Nc1nc(F)c(CN2C[C@H](Oc3ccc4c(cnn4C(F)F)n3)C[C@@H]2C)s1 [Example 153, N-(5-(((2S,4R)-4-((1-(difluoromethyl)-1H-pyrazolo[4,3-b]pyridin-5-yl)oxy)-2-methylpyrrolidin-1-yl)methyl)-4-fluorothiazol-2-yl)acetamide]	> 9.00
CC(=O)Nc1ncc(CN2C[C@H](Oc3nccc4ccccc34)C[C@@H]2C)s1 [Example 26, N-(5-(((2S,4R)-4-(isoquinolin-1-yloxy)-2-methylpyrrolidin-1-yl)methyl)thiazol-2-yl)acetamide]	8.35
CC(=O)Nc1nc(F)c(CN2C[C@H](Oc3nccc4nn(C)cc34)C[C@@H]2C)s1 [Example 136, N-(4-fluoro-5-(((2S,4R)-2-methyl-4-((2-methyl-2H-pyrazolo[4,3-c]pyridin-4-yl)oxy)pyrrolidin-1-yl)methyl)thiazol-2-yl)acetamide]	> 9.00
CC(=O)Nc1ncc(CN2C[C@H](Oc3nn4c(C(F)(F)F)nnc4c(C)c3C)C[C@@H]2C)s1 [Example 20, N-(5-(((2S,4R)-4-((7,8-dimethyl-3-(trifluoromethyl)-[1,2,4]triazolo[4,3-b]pyridazin-6-yl)oxy)-2-methylpyrrolidin-1-yl)methyl)thiazol-2-yl)acetamide]	8.80

Next, values leading:

pIC50	SMILES
> 9.00	COc1cc2c(O[C@@H]3C[C@H](C)N(Cc4sc(NC(C)=O)nc4F)C3)ccnc2cc1F [Example 128, N-(4-fluoro-5-(((2S,4R)-4-((7-fluoro-6-methoxyquinolin-4-yl)oxy)-2-methylpyrrolidin-1-yl)methyl)thiazol-2-yl)acetamide]
8.72	CC(=O)Nc1ncc(CN2C[C@H](Oc3cc(C(N)=O)nc4ccccc34)C[C@@H]2C)s1 [Example 21, 4-(((3R,5S)-1-((2-acetamidothiazol-5-yl)methyl)-5-methylpyrrolidin-3-yl)oxy)quinoline-2-carboxamide]
> 9.00	CC(=O)Nc1nc(F)c(CN2C[C@H](Oc3nccn4ccnc34)C[C@@H]2C)s1 [Example 96, N-(4-fluoro-5-(((2S,4R)-4-(imidazo[1,2-a]pyrazin-8-yloxy)-2-methylpyrrolidin-1-yl)methyl)thiazol-2-yl)acetamide]
> 9.00	CC(=O)Nc1ncc(CN2C[C@H](Oc3ccnc4cc(F)ccc34)C[C@@H]2C)s1 [Example 17, N-(5-(((2S,4R)-4-((7-fluoroquinolin-4-yl)oxy)-2-methylpyrrolidin-1-yl)methyl)thiazol-2-yl)acetamide]
> 9.00	CC(=O)Nc1ncc(CN2C[C@H](Oc3ncnc4ccoc34)C[C@@H]2C)s1 [Example 71, N-(5-(((2S,4R)-4-(furo[3,2-d]pyrimidin-4-yloxy)-2-methylpyrrolidin-1-yl)methyl)thiazol-2-yl)acetamide]
> 9.00	CC(=O)Nc1nc(F)c(CN2C[C@H](Oc3ccn4nccc4n3)C[C@@H]2C)s1 [Example 62, N-(4-fluoro-5-(((2S,4R)-2-methyl-4-(pyrazolo[1,5-a]pyrimidin-5-yloxy)pyrrolidin-1-yl)methyl)thiazol-2-yl)acetamide]
> 9.00	CC(=O)Nc1nc(F)c(CN2C[C@H](Oc3ccc4nn(C(F)F)cc4n3)C[C@@H]2C)s1 [Example 154, N-(5-(((2S,4R)-4-((2-(difluoromethyl)-2H-pyrazolo[4,3-b]pyridin-5-yl)oxy)-2-methylpyrrolidin-1-yl)methyl)-4-fluorothiazol-2-yl)acetamide]
> 9.00	CC(=O)Nc1nc(F)c(CN2C[C@H](Oc3ncnc4c3cnn4C)C[C@@H]2C)s1 [Example 143, N-(4-fluoro-5-(((2S,4R)-2-methyl-4-((1-methyl-1H-pyrazolo[3,4-d]pyrimidin-4-yl)oxy)pyrrolidin-1-yl)methyl)thiazol-2-yl)acetamide]
